Marks after values point to notes of the source that are not given here.
What was measured:
[1] = molecular target: T1, human receptor GPR17 (Homo sapiens, UniProt Q13304); assay: [35S]GTPγS binding assay on membranes of 1321N1 cells transfected with human GPR17; format: biochemical; conditions: for EC50 / Emax: [35S]GTPγS binding; for EC50: 1321N1 cells expressing human GPR17, mean±SEM of three experiments; for Emax: LTC4 at 100 nM, in % (unit assumed); for % Emax vs standard: efficacy relative to LTC4 set to 100%; for effect of antagonist on concentration-response curve of the compound: in presence of cangrelor or montelukast
T1 construct: expressed in transfected cells; host or cells: human 1321N1 astrocytoma cells, calcium phosphate transfection with pcDNA3.1; plasma membranes used
T1 sequence (Q13304 29-367 limits assumed): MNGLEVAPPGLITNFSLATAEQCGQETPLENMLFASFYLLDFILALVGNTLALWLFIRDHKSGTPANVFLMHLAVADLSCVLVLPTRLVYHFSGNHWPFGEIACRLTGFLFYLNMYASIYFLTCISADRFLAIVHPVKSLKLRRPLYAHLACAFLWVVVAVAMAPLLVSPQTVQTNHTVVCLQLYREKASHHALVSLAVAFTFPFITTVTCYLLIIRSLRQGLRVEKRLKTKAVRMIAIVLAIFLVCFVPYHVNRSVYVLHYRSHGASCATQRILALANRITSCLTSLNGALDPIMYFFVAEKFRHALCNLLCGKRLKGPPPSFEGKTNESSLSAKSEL
Method: A—The compounds according to the invention were evaluated for their functional activity on GPR17 using a well-known assay for GPCRs, the [^35S]GTPγS binding assay, which is based on the ability of the agonist to increase radioactive GTP binding when a GPCR is activated. The antagonist activity is evaluated according to the ability to counteract the increased [^35S]GTPγS binding induced by the LTC4 reference agonist.
The activation of GPCRs by agonists stimulates the dissociation of GDP from G-protein, thus increasing GTP binding in its place. This increase in GTP binding to G-protein can be quantified in vitro with [^35S]GTPγS. The effect of GPCR activation on [^35S]GTPγS binding is catalytic, because it increases the [^35S]GTPγS binding rate rather than [^35S]GTPγS binding equilibrium. […] For some GPCRs, the binding stimulated by the agonist (ie. the difference between GTP binding in the presence and absence of the agonist) increases with time, peaks and then falls to zero; optimal increases in [^35S]GTPγS binding induced by the agonist are often obtained before equilibrium is attained, rather than at equilibrium. […] The control and transfected cells were homogenised in 5 mM Tris-HCl and 2 mM EDTA (pH 7.4) and centrifuged at 48000 g for 15 min at 4° C. The resulting pellets (plasma membranes) were washed in 50 mM Tris-HCl and 10 mM MgCl2 (pH 7.4) and stored at −80° C. until use.
The Graph-Pad Prism program was used for the analysis and graphic presentation of the [^35S]GTPγS binding data. All the data are shown as the mean±SEM of three different experiments. The data were tested for statistical significance with the paired Student's t test or analysis of variance (one-way ANOVA), as appropriate. When significant differences were observed, the Newman-Keuls multiple comparison test (one-way ANOVA) was performed. A value of P<0.05 was considered significant.

[2] = [35S]GTPγS binding assay on 1321N1 cells transfected only with control vector pcDNA3.1; format: biochemical, human; conditions: cells transfected only with pcDNA3.1
Method: Human 1321N1 cells were cultured as described [Fumagalli et al., 2004, Biochem Pharmacol 68:113]. For the [^35S]GTPγS assay, 10^6 1321N1 cells were seeded on 75 cm^2 flasks and transfected by the calcium phosphate precipitation method, with the vector pcDNA3.1 containing the construct encoding for human receptor GPR17, and with the empty vector pcDNA3.1 as control [Fumagalli et al., 2004, Biochem Pharmacol 68:113].
The activation of GPCRs by agonists stimulates the dissociation of GDP from G-protein, thus increasing GTP binding in its place. This increase in GTP binding to G-protein can be quantified in vitro with [^35S]GTPγS. The effect of GPCR activation on [^35S]GTPγS binding is catalytic, because it increases the [^35S]GTPγS binding rate rather than [^35S]GTPγS binding equilibrium. Consequently, the [^35S]GTPγS binding assay is intrinsically a functional concentration-response curve, not an equilibrium binding assay [Lazareno, 1999, Methods Mol Biol 1106:231; Milligan, 2003, Trends Pharmacol Ski 24:87]. For some GPCRs, the binding stimulated by the agonist (ie. the difference between GTP binding in the presence and absence of the agonist) increases with time, peaks and then falls to zero; optimal increases in [^35S]GTPγS binding induced by the agonist are often obtained before equilibrium is attained, rather than at equilibrium. […]

[3] = system: oligodendrocyte precursor cells (OPCs); assay: Pro-myelinating activity assay on oligodendrocyte precursor cell (OPC) cultures (MBP-positive cells); format: cell-based, Sprague-Dawley rat; conditions: 48 h after start of treatment
Method: The OPCs were cultured on plates containing 24 mm slides coated with poly-D,L-ornithine in Neurobasal medium with 2% of B27 supplement (Invitrogen), L-glutamine (2 mM) and enriched with growth factors PDGF and betaFGF (10 ng/ml) to promote proliferation. In order to promote differentiation, after 24 h, the culture medium was replaced with Neurobasal with 2% B27 without growth factors and with the addition of triiodothyronine T3 (400 ng/ml).
The ability of the agonists to promote myelination was evaluated by measuring the increase in the number of cells positive for the MBP marker present in the culture compared with the control treated with the carrier alone. In particular, 48 h after treatment with the agonists, the cells were fixed in 4% paraformaldehyde in 0.1 M PBS and stained by immunocytochemistry using an antibody specific for MBP. […] The slides were mounted with Dako Fluorescent Mounting Medium (Dako, Milan) on cover slips and analysed with an inverted optical microscope (AXIOVERT 200 M, Zeiss, Milan). The images were processed and acquired with Axiovision 4.4 software, in the rhodamine fluorescence channel for MBP. The effects of the treatments on OPC myelination were quantified by manual count using ImageJ software (Wayne Rasband, Research Services Branch of the National Institute of Mental Health of Bethesda, USA).

COc1ccc(-n2c(SC(C)C(=O)Nc3ccccc3)nnc2-c2ccccc2OC)cc1 (centres unmarked) [(I), 2-[[5-(2-methoxyphenyl)-4-(4-methoxyphenyl)-4H-1,2,4-triazol-3-yl]thio]-N-phenylpropanamide]
EC50 [1]: 0.109 ± 0.028 nM | Emax [1]: 145.6 ± 5.7 | % Emax vs standard [1]: 100.6% | effect of antagonist on concentration-response curve of the compound [1]: shifted to the right (increase in EC50), but no effect on efficacy was observed | effect of antagonist on concentration-response curve of the compound ([1]; listed as I): reduction in the efficacy

COCCn1nnnc1C(c1cc2cc(OC)ccc2[nH]c1=O)N(CCc1ccccc1)Cc1ccccc1 (centres unmarked) [(II), 6-methoxy-3-[[1-(2-methoxyethyl)-1H-tetrazol-5-yl][(2-phenylethyl)(phenylmethyl)-amino]methyl]-2(1H)-quinolinone]
EC50 [1]: 3.67 ± 0.51 nM | Emax [1]: 206.8 ± 8.3 | % Emax vs standard [1]: 142.8*** %

COc1ccc(N(C(=O)Cn2nnc3ccccc32)C(C(=O)NCC2CCCO2)c2ccc(F)cc2)cc1 (centres unmarked) [(IV), N-[1-(4-fluorophenyl)-2-oxo-2-[[(tetrahydro-2-furanyl)methyl]amino]ethyl]-N-(4-methoxyphenyl)-1H-benzotriazol-1-acetamide]
EC50 [1]: 2.27 ± 0.07 nM | Emax [1]: 173.5 ± 0.5 | % Emax vs standard [1]: 119.8*** %

O=C(Nc1ccc(C(F)(F)F)cc1)N1CCC(c2nc(O)c3nnn(Cc4ccccc4Cl)c3n2)CC1 [(V), 4-[3-[(2-chlorophenyl)methyl]-6,7-dihydro-7-oxo-3H-1,2,3-triazole[4,5-d]pyrimidin-5-yl]-N-[4-(trifluoromethyl)phenyl]-1-piperidinecarboxamide]
EC50 [1]: 0.268 ± 0.009 nM | Emax [1]: 161.5 ± 2.4 | % Emax vs standard [1]: 111.5** %

CCCCC/C=C\C\C=C/C=C/C=C/[C@@H](SC[C@H](NC(=O)CC[C@H](N)C(=O)O)C(=O)NCC(=O)O)[C@@H](O)CCCC(=O)O [LTC4, reference compound]
Emax [1]: 144.8 ± 0.4 | % Emax vs standard [1]: 100% | response in [35S]GTPγS binding in control-vector cells [2]: unable to induce a response

CCCCC/C=C\C\C=C/C=C/C=C/[C@@H](SC[C@H](N)C(=O)O)[C@@H](O)CCCC(=O)O [LTE4]
pro-myelinating activity, in words (mature cells expressing MBP) [3]: increase the number of mature cells in culture expressing MBP

O=c1ccn([C@@H]2O[C@H](COP(=O)(O)OP(=O)(O)O)[C@@H](O)[C@H]2O)c(=O)[nH]1 [UDP]
pro-myelinating activity, in words (mature cells expressing MBP) [3]: increase the number of mature cells in culture expressing MBP

CSCCNc1nc(SCCC(F)(F)F)nc2c1ncn2[C@@H]1O[C@H](COP(=O)(O)OP(=O)(O)C(Cl)(Cl)P(=O)(O)O)[C@@H](O)[C@H]1O [cangrelor, reference compound]
type of antagonism on concentration-response curves of compound of formula (I) ([1]; curves of compound (I) in presence of different concentrations of the antagonist (FIG. 1 C, D)): competitive antagonist

— patent publication US20150094348A1, “GPR17-MODULATING COMPOUNDS, DIAGNOSTIC AND THERAPEUTIC USES THEREOF” (Centro Cardiologico Monzino S.p.A., priority 2010, published 2015)
